Each molecule was assayed on HBsAg (assay: microbe, parasite or virus in culture). Conditions: Hepatitis B virus, HepG2.2.15.
Experimental: HepG2.2.15 cells (Acs et al. Proc Natl Acad Sci USA, 84, (1987), 4641-4), a constitutively HBV-expressing cell line were cultured in DMEM+Glutamax-I medium (Invitrogen, Carlsbad, Calif., USA), supplemented with 10% fetal bovine serum (Invitrogen) and G418 (Invitrogen) at a final concentration of 200 mg/L and maintained in 5% CO2 at 37° C.
HepG2.2.15 cells were seeded in duplicate into white, 96-well plates at 1.5×10^4 cells/well. The cells were treated with a three-fold serial dilution series of the compounds in DMSO. The final DMSO concentration in all wells was 1% and DMSO was used as no drug control.
The HBsAg chemiluminescence immunoassay (CLIA) kit (Autobio Diagnostics Co., Zhengzhou, China, Catalog number: CL0310-2) was used to measure the levels of secreted HBV antigens semi-quantitatively. For the detection 50 μL/well culture supernatant was used and HBsAg was quantified using HBsAg chemiluminescence immunoassay (CLIA) kit (Autobio Diagnostics Co., Zhengzhou, China, Catalog number: CL0310-2), 50 μL of the supernatant was transferred to the CLIA assay plate and 50 μL of enzyme conjugate reagent was added into each well. The plates were sealed and gently agitated for 1 hour at room temperature. The supernatant-enzyme-mixture was discarded and wells were washed 6 times with 300 μL of PBS. The residual liquid was removed by plating the CLIA plate right side down on absorbent tissue paper. 25 μL of substrates A and B were added to each well. Luminance was measured using a luminometer (Mithras LB 940 Multimode Microplate Reader) after 10 minutes incubation. Dose-response curves were generated and the IC50 value was extrapolated by using the E-WorkBook Suite (ID Business Solutions Ltd., Guildford, UK). The IC50 was defined as the compound concentration (or conditioned media log dilution) at which HBsAg secretion was reduced by 50% compared to the no drug control.
The compounds of the present invention were tested for their activity to inhibit HBsAg as described herein.

Row | Compound | IC50 [nM]
1 | COCCCOc1cc2c(cc1OC)-c1cc(=O)c(C(=O)O)cn1[C@H]1[C@@H]2CCC1(C)C (racemic) [Example 2, cis-10-methoxy-11-(3-methoxypropoxy)-3,3-dimethyl-7-oxo-1,2,3,3a,7,12b-hexahydrocyclopenta[c]pyrido[2,1-a]isoquinoline-6-carboxylic acid] | 1
2 | COc1cc2c(cc1OCc1ccccc1)[C@H]1CCCC[C@@H]1n1cc(C(=O)O)c(=O)cc1-2 (racemic) [Example 31, Trans-12-benzyloxy-11-methoxy-8-oxo-1,2,3,4,4a,13b-hexahydropyrido[1,2-f]phenanthridine-7-carboxylic acid] | 120
3 | COCCCOc1cc2c(cc1OC)-c1cc(=O)c(C(=O)O)cn1[C@@H]1CCSC[C@@H]21 (racemic) [Example 35, Trans-11-methoxy-12-(3-methoxypropoxy)-8-oxo-1,3,4,4a,8,13b-hexahydropyrido[2,1-a]thiopyrano[4,3-c]isoquinoline-7-carboxylic acid] | 110
4 | COCCCOc1cc2c(cc1OC)-c1cc(=O)c(C(=O)O)cn1[C@@H]1CCSC[C@H]21 (racemic) [Example 36, cis-11-methoxy-12-(3-methoxypropoxy)-8-oxo-1,3,4,4a,8,13b-hexahydropyrido[2,1-a]thiopyrano[4,3-c]isoquinoline-7-carboxylic acid] | 28
5 | COCCCOc1cc2c(cc1OC)-c1cc(=O)c(C(=O)O)cn1[C@H]1[C@H]2CCC1(C)C (relative stereo) [Example 1, Trans-10-methoxy-11-(3-methoxypropoxy)-3,3-dimethyl-7-oxo-1,2,3,3a,7,12b-hexahydrocyclopenta[c]pyrido[2,1-a]isoquinoline-6-carboxylic acid] | 10
6 | COc1cc2c(cc1O)[C@H]1CCC(C)(C)[C@H]1n1cc(C(=O)O)c(=O)cc1-2 (relative stereo) [Example 6, Cis-11-hydroxy-10-methoxy-3,3-dimethyl-7-oxo-1,2,3,3a,7,12b-hexahydrocyclopenta[c]pyrido[2,1-a]isoquinoline-6-carboxylic acid] | 84
7 | COc1cc2c(cc1OC)[C@H]1CCC(C)(C)[C@H]1n1cc(C(=O)O)c(=O)cc1-2 (relative stereo) [Example 7, Cis-10,11-dimethoxy-3,3-dimethyl-7-oxo-1,2,3,3a,7,12b-hexahydrocyclopenta[c]pyrido[2,1-a]isoquinoline-6-carboxylic acid] | 5
8 | COc1cc2c(cc1OCC(F)(F)F)[C@H]1CCC(C)(C)[C@H]1n1cc(C(=O)O)c(=O)cc1-2 (relative stereo) [Example 8, Cis-10-methoxy-3,3-dimethyl-7-oxo-11-(2,2,2-trifluoroethoxy)-1,2,3,3a,7,12b-hexahydrocyclopenta[c]pyrido[2,1-a]isoquinoline-6-carboxylic acid] | 3
9 | COc1cc2c(cc1OCC(C)C)[C@H]1CCC(C)(C)[C@H]1n1cc(C(=O)O)c(=O)cc1-2 (relative stereo) [Example 9, Cis-11-isobutoxy-10-methoxy-3,3-dimethyl-7-oxo-1,2,3,3a,7,12b-hexahydrocyclopenta[c]pyrido[2,1-a]isoquinoline-6-carboxylic acid] | 1
10 | COc1cc2c(cc1OCC1CC1)[C@H]1CCC(C)(C)[C@H]1n1cc(C(=O)O)c(=O)cc1-2 (relative stereo) [Example 10, Cis-11-(cyclopropylmethoxy)-10-methoxy-3,3-dimethyl-7-oxo-1,2,3,3a,7,12b-hexahydrocyclopenta[c]pyrido[2,1-a]isoquinoline-6-carboxylic acid] | 1
11 | COCCOc1cc2c(cc1OC)-c1cc(=O)c(C(=O)O)cn1[C@H]1[C@@H]2CCC1(C)C (relative stereo) [Example 11, Cis-10-methoxy-11-(2-methoxyethoxy)-3,3-dimethyl-7-oxo-1,2,3,3a,7,12b-hexahydrocyclopenta[c]pyrido[2,1-a]isoquinoline-6-carboxylic acid] | 4
12 | COc1cc2c(cc1OCCCC#N)[C@H]1CCC(C)(C)[C@H]1n1cc(C(=O)O)c(=O)cc1-2 (relative stereo) [Example 12, Cis-11-(3-cyanopropoxy)-10-methoxy-3,3-dimethyl-7-oxo-1,2,3,3a,7,12b-hexahydrocyclopenta[c]pyrido[2,1-a]isoquinoline-6-carboxylic acid] | 4
13 | COc1cc2c(cc1OCCCO)[C@H]1CCC(C)(C)[C@H]1n1cc(C(=O)O)c(=O)cc1-2 (relative stereo) [Example 13, Cis-11-(3-hydroxypropoxy)-10-methoxy-3,3-dimethyl-7-oxo-1,2,3,3a,7,12b-hexahydrocyclopenta[c]pyrido[2,1-a]isoquinoline-6-carboxylic acid] | 5
14 | COc1cc2c(cc1OCC(C)(C)CO)[C@H]1CCC(C)(C)[C@H]1n1cc(C(=O)O)c(=O)cc1-2 (relative stereo) [Example 14, Cis-11-(3-hydroxy-2,2-dimethylpropoxy)-10-methoxy-3,3-dimethyl-7-oxo-1,2,3,3a,7,12b-hexahydrocyclopenta[c]pyrido[2,1-a]isoquinoline-6-carboxylic acid] | 3
15 | COc1cc2c(cc1OCCCN1CCOCC1)[C@H]1CCC(C)(C)[C@H]1n1cc(C(=O)O)c(=O)cc1-2 (relative stereo) [Example 15, Cis-10-methoxy-3,3-dimethyl-11-(3-morpholinopropoxy)-7-oxo-1,2,3,3a,7,12b-hexahydrocyclopenta[c]pyrido[2,1-a]isoquinoline-6-carboxylic acid] | 6
16 | COc1cc2c(cc1OCCCN1CCCC1)[C@H]1CCC(C)(C)[C@H]1n1cc(C(=O)O)c(=O)cc1-2 (relative stereo) [Example 16, Cis-10-methoxy-3,3-dimethyl-7-oxo-11-(3-(pyrrolidin-1-yl)propoxy)-1,2,3,3a,7,12b-hexahydrocyclopenta[c]pyrido[2,1-a]isoquinoline-6-carboxylic acid] | 128
17 | COc1cc2c(cc1OCCCN1CCCC1=O)[C@H]1CCC(C)(C)[C@H]1n1cc(C(=O)O)c(=O)cc1-2 (relative stereo) [Example 17, Cis-10-methoxy-3,3-dimethyl-7-oxo-11-(3-(2-oxopyrrolidin-1-yl)propoxy)-1,2,3,3a,7,12b-hexahydrocyclopenta[c]pyrido[2,1-a]isoquinoline-6-carboxylic acid] | 25
18 | CCOC(=O)CCCOc1cc2c(cc1OC)-c1cc(=O)c(C(=O)O)cn1[C@H]1[C@@H]2CCC1(C)C (relative stereo) [Example 18, Cis-11-(4-ethoxy-4-oxobutoxy)-10-methoxy-3,3-dimethyl-7-oxo-1,2,3,3a,7,12b-hexahydrocyclopenta[c]pyrido[2,1-a]isoquinoline-6-carboxylic acid] | 10
19 | COc1cc2c(cc1OCCCC(=O)O)[C@H]1CCC(C)(C)[C@H]1n1cc(C(=O)O)c(=O)cc1-2 (relative stereo) [Example 19, Cis-11-(3-carboxypropoxy)-10-methoxy-3,3-dimethyl-7-oxo-1,2,3,3a,7,12b-hexahydrocyclopenta[c]pyrido[2,1-a]isoquinoline-6-carboxylic acid] | 505
20 | COc1cc2c(cc1OCCCSC)[C@H]1CCC(C)(C)[C@H]1n1cc(C(=O)O)c(=O)cc1-2 (relative stereo) [Example 20, Cis-10-methoxy-3,3-dimethyl-11-(3-(methylthio)propoxy)-7-oxo-1,2,3,3a,7,12b-hexahydrocyclopenta[c]pyrido[2,1-a]isoquinoline-6-carboxylic acid] | 2
21 | COc1cc2c(cc1OCCCS(C)(=O)=O)[C@H]1CCC(C)(C)[C@H]1n1cc(C(=O)O)c(=O)cc1-2 (relative stereo) [Example 21, Cis-10-methoxy-3,3-dimethyl-11-(3-(methylsulfonyl)propoxy)-7-oxo-1,2,3,3a,7,12b-hexahydrocyclopenta[c]pyrido[2,1-a]isoquinoline-6-carboxylic acid] | 17
22 | COc1cc2c(cc1OCCCCCCO)[C@H]1CCC(C)(C)[C@H]1n1cc(C(=O)O)c(=O)cc1-2 (relative stereo) [Example 22, Cis-11-((6-hydroxyhexyl)oxy)-10-methoxy-3,3-dimethyl-7-oxo-1,2,3,3a,7,12b-hexahydrocyclopenta[c]pyrido[2,1-a]isoquinoline-6-carboxylic acid] | 1
23 | COc1cc2c(cc1OCCCCCCNC(=O)OC(C)(C)C)[C@H]1CCC(C)(C)[C@H]1n1cc(C(=O)O)c(=O)cc1-2 (relative stereo) [Example 23, Cis-11-((6-((tert-butoxycarbonyl)amino)hexyl)oxy)-10-methoxy-3,3-dimethyl-7-oxo-1,2,3,3a,7,12b-hexahydrocyclopenta[c]pyrido[2,1-a]isoquinoline-6-carboxylic acid] | 2
24 | COc1cc2c(cc1OCCCCCCN)[C@H]1CCC(C)(C)[C@H]1n1cc(C(=O)O)c(=O)cc1-2 (relative stereo) [Example 24, Cis-11-((6-aminohexyl)oxy)-10-methoxy-3,3-dimethyl-7-oxo-1,2,3,3a,7,12b-hexahydrocyclopenta[c]pyrido[2,1-a]isoquinoline-6-carboxylic acid] | 20
25 | COc1cc2c(cc1OCCCCCCNC(C)=O)[C@H]1CCC(C)(C)[C@H]1n1cc(C(=O)O)c(=O)cc1-2 (relative stereo) [Example 25, Cis-11-((6-acetamidohexyl)oxy)-10-methoxy-3,3-dimethyl-7-oxo-1,2,3,3a,7,12b-hexahydrocyclopenta[c]pyrido[2,1-a]isoquinoline-6-carboxylic acid] | 6
26 | COc1cc2c(cc1OCCCCCCNS(C)(=O)=O)[C@H]1CCC(C)(C)[C@H]1n1cc(C(=O)O)c(=O)cc1-2 (relative stereo) [Example 26, Cis-10-methoxy-3,3-dimethyl-11-((6-(methylsulfonamido)hexyl)oxy)-7-oxo-1,2,3,3a,7,12b-hexahydrocyclopenta[c]pyrido[2,1-a]isoquinoline-6-carboxylic acid] | 2
27 | COCCCOc1cc2c(cc1Cl)-c1cc(=O)c(C(=O)O)cn1[C@@H]1CCCCC[C@@H]21 (relative stereo) [Example 27, Trans-13-chloro-12-(3-methoxypropoxy)-2-oxo-2,5a,6,7,8,9,10,10a-octahydrocyclohepta[c]pyrido[2,1-a]isoquinoline-3-carboxylic acid] | 20
